What was measured:
[1] = biological target: Calcium/calmodulin-dependent protein kinase type II subunit beta (Homo sapiens) (UniProt Q13554); test: Inhibition of human CAMK2 beta catalytic domain expressed in baculovirus assessed as substrate phosphorylation using fluorescence-labelled peptides as substrate at 95 uM after 90 mins by microfluidic peptide phosphorylation assay
[2] = biological target: Mitogen-activated protein kinase 3 (Homo sapiens) (UniProt P27361); test: Inhibition of human full length ERK1 expressed in Escherichia coli cell assessed as substrate phosphorylation using fluorescence-labelled peptides as substrate at 0.2 uM after 90 mins by microfluidic peptide phosphorylation assay
Chain of Mitogen-activated protein kinase 3 (Homo sapiens) (P27361 whole entry, the tested form may be a part): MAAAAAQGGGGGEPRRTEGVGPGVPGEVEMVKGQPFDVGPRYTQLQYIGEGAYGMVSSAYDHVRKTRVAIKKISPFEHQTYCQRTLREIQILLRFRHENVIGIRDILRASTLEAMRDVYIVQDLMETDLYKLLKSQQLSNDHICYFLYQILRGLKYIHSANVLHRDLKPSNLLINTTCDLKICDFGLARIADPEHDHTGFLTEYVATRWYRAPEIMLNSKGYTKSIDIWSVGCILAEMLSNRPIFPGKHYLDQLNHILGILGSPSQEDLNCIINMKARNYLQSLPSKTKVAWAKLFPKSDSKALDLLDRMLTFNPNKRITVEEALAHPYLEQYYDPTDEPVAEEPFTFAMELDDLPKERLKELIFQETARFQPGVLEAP

[3] = biological target: Fibroblast growth factor receptor 4 (Homo sapiens) (UniProt P22455); test: Inhibition of human FGFR4 catalytic domain expressed in baculovirus assessed as substrate phosphorylation using fluorescence-labelled peptides as substrate at 0.2 uM after 90 mins by microfluidic peptide phosphorylation assay
Chain of Fibroblast growth factor receptor 4 (Homo sapiens) (P22455 22-802 limits assumed): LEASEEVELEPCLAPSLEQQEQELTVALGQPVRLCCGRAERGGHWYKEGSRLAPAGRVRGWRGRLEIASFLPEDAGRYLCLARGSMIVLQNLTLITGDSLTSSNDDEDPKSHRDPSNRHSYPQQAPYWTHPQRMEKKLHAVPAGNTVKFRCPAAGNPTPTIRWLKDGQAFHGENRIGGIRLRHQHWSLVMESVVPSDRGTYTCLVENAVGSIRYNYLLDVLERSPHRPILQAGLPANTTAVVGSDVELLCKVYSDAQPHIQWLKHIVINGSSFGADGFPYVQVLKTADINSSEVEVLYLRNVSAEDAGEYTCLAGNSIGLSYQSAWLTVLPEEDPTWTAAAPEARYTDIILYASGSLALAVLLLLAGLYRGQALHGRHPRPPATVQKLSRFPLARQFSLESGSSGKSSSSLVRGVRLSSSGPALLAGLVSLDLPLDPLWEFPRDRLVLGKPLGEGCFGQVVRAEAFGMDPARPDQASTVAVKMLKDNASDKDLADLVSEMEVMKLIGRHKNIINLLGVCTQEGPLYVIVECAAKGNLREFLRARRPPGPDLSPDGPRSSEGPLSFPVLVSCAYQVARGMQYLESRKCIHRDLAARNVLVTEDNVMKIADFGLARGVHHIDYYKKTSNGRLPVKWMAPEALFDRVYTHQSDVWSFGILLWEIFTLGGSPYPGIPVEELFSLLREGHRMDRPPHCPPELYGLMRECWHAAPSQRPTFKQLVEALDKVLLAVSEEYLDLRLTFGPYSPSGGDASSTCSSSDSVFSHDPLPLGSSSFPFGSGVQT

[4] = biological target: Tyrosine-protein kinase Fyn (Homo sapiens) (UniProt P06241); test: Inhibition of human full length FYN expressed in baculovirus assessed as substrate phosphorylation using fluorescence-labelled peptides as substrate at 0.2 uM after 90 mins by microfluidic peptide phosphorylation assay
Chain of Tyrosine-protein kinase Fyn (Homo sapiens) (P06241 2-537 limits assumed): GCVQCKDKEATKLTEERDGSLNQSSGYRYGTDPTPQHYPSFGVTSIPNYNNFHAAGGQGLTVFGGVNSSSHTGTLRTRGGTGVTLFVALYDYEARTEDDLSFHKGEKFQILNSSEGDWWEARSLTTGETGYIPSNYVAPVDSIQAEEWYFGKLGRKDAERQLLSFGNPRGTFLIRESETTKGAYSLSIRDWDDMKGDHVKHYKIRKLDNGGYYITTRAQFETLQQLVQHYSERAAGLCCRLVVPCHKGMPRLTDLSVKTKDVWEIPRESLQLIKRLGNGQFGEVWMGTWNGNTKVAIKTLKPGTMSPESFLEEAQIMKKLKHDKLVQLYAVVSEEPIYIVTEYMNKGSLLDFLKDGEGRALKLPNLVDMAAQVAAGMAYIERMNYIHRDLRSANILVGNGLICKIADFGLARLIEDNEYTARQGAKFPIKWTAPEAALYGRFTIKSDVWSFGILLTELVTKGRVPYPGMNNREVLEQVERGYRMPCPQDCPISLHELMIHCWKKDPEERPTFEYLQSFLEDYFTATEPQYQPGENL

[5] = biological target: T1, Serine/threonine-protein kinase Chk1 (Homo sapiens) (UniProt O14757); test: Inhibition of human full length CHK1 expressed in baculovirus assessed as substrate phosphorylation using fluorescence-labelled peptides as substrate at 8 uM after 90 mins by microfluidic peptide phosphorylation assay
T1 sequence (whole entry): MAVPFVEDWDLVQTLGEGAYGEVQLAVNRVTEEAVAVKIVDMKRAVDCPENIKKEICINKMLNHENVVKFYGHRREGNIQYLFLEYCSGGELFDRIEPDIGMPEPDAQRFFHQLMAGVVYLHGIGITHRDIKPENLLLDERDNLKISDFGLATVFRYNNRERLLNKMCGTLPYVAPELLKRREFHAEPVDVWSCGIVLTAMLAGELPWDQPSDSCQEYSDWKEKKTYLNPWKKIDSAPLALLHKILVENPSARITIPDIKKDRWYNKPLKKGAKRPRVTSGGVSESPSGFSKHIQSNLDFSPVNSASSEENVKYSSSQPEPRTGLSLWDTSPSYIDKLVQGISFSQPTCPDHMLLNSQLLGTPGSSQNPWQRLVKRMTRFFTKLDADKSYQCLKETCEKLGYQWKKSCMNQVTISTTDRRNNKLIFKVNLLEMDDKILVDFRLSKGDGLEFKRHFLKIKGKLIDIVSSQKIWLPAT

[6] = biological target: T2, Calcium/calmodulin-dependent protein kinase type IV (Homo sapiens) (UniProt Q16566); test: Inhibition of human full length CAMK4 expressed in baculovirus assessed as substrate phosphorylation using fluorescence-labelled peptides as substrate at 1000 uM after 90 mins by microfluidic peptide phosphorylation assay
T2 sequence (whole entry): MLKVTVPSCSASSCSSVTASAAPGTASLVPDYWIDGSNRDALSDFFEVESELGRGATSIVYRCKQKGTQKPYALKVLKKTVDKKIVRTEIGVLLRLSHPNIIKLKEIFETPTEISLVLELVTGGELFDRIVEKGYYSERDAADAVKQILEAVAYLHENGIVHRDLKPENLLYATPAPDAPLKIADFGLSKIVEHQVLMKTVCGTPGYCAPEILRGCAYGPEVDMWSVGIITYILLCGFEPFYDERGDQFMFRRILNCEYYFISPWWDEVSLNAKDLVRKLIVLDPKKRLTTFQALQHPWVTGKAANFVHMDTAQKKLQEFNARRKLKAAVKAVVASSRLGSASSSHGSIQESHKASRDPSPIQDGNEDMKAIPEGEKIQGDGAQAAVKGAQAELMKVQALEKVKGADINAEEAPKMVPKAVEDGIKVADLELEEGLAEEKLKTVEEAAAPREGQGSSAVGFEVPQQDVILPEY

[7] = biological target: Insulin-like growth factor 1 receptor (Homo sapiens) (UniProt P08069); test: Inhibition of human IGF1R catalytic domain expressed in baculovirus assessed as substrate phosphorylation using fluorescence-labelled peptides as substrate at 0.06 uM after 90 mins by microfluidic peptide phosphorylation assay
[8] = biological target: T3, Aurora kinase A (Homo sapiens) (UniProt O14965); test: Inhibition of human full length AurA expressed in baculovirus assessed as substrate phosphorylation using fluorescence-labelled peptides as substrate at […] after 90 mins by microfluidic peptide phosphorylation assay
T3 sequence (whole entry): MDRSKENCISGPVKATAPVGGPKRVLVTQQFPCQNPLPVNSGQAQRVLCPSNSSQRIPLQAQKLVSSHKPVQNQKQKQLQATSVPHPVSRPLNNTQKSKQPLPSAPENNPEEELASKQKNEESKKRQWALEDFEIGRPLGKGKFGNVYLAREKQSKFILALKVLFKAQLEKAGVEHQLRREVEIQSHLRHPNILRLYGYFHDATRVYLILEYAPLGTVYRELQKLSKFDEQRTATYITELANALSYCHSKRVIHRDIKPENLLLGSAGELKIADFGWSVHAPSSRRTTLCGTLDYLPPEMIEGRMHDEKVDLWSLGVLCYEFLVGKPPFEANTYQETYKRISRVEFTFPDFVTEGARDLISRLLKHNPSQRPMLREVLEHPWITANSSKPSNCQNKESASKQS

[9] = tested on: Tyrosine-protein kinase ABL1 (Homo sapiens), P00519 [H396P]; test: Inhibition of human truncated ABL H396P mutant expressed in baculovirus assessed as substrate phosphorylation using fluorescence-labelled peptides as substrate at 9 uM after 90 mins by microfluidic peptide phosphorylation assay
[10] = biological target: Proto-oncogene tyrosine-protein kinase Src (Homo sapiens) (UniProt P12931); test: Inhibition of human full length SRC expressed in baculovirus assessed as substrate phosphorylation using fluorescence-labelled peptides as substrate at 9 uM after 90 mins by microfluidic peptide phosphorylation assay
Chain of Proto-oncogene tyrosine-protein kinase Src (Homo sapiens) (P12931 2-536 limits assumed): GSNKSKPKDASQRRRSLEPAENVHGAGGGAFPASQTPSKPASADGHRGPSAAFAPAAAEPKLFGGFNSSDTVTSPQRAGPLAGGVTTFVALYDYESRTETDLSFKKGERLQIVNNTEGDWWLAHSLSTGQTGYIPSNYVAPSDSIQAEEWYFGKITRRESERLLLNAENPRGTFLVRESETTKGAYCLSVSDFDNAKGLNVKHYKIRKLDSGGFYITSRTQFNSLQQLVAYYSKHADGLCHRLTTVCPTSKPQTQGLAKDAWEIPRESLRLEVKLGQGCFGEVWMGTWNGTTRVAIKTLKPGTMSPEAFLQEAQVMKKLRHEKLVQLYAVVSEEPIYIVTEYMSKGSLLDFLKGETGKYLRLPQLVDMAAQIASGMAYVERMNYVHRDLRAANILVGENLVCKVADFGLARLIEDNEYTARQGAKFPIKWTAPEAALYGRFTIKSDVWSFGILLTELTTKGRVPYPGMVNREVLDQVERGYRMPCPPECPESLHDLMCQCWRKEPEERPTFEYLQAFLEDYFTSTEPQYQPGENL

[11] = biological target: T4, Mitogen-activated protein kinase 12 (Homo sapiens) (UniProt P53778); test: Inhibition of human full length p38 gamma expressed in Escherichia coli cell assessed as substrate phosphorylation using fluorescence-labelled peptides as substrate at 9 uM after 90 mins by microfluidic peptide phosphorylation assay
T4 sequence (whole entry): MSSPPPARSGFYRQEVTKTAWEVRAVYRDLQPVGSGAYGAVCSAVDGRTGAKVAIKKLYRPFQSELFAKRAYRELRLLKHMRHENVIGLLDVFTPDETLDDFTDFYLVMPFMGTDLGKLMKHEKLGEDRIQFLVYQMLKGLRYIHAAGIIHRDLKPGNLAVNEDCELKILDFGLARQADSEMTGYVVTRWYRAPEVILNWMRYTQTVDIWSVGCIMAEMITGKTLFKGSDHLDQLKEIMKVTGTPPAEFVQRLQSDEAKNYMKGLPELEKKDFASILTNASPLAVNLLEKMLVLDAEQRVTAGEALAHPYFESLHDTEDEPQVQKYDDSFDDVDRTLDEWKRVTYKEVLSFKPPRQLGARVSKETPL

[12] = biological target: Platelet-derived growth factor receptor alpha (Homo sapiens) (UniProt P16234); test: Inhibition of human PDGFR alpha catalytic domain expressed in baculovirus assessed as substrate phosphorylation using fluorescence-labelled peptides as substrate at 9 uM after 90 mins by microfluidic peptide phosphorylation assay
Chain of Platelet-derived growth factor receptor alpha (Homo sapiens) (P16234 whole entry, the tested form may be a part): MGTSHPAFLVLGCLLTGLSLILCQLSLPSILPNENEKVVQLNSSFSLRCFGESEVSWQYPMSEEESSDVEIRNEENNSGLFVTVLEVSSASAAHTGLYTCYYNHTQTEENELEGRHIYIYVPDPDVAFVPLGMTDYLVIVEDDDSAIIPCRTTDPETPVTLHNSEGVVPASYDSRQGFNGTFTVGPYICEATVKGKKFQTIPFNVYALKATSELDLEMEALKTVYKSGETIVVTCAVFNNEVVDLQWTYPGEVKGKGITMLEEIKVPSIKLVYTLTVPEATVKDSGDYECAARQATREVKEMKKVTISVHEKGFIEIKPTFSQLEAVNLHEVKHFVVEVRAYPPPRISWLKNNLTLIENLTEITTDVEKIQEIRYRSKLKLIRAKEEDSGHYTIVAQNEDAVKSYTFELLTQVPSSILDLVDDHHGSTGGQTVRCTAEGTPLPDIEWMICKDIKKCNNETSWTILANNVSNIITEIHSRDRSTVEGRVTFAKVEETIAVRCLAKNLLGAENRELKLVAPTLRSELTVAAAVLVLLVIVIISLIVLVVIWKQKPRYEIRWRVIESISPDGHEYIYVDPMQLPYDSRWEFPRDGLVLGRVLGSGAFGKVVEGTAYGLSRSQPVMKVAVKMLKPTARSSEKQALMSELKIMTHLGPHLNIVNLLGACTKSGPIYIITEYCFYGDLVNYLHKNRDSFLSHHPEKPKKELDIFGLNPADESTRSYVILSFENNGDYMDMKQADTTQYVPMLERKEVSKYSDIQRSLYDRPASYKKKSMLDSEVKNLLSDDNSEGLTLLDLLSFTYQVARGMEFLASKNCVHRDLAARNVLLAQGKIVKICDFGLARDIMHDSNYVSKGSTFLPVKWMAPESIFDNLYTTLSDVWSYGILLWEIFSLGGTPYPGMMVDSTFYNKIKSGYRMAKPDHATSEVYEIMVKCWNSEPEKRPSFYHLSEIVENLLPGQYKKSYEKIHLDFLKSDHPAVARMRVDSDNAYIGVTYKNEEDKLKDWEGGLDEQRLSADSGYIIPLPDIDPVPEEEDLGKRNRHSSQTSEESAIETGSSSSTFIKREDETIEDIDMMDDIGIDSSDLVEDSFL

Chain of Calcium/calmodulin-dependent protein kinase type II subunit beta (Homo sapiens) (Q13554 whole entry, the tested form may be a part): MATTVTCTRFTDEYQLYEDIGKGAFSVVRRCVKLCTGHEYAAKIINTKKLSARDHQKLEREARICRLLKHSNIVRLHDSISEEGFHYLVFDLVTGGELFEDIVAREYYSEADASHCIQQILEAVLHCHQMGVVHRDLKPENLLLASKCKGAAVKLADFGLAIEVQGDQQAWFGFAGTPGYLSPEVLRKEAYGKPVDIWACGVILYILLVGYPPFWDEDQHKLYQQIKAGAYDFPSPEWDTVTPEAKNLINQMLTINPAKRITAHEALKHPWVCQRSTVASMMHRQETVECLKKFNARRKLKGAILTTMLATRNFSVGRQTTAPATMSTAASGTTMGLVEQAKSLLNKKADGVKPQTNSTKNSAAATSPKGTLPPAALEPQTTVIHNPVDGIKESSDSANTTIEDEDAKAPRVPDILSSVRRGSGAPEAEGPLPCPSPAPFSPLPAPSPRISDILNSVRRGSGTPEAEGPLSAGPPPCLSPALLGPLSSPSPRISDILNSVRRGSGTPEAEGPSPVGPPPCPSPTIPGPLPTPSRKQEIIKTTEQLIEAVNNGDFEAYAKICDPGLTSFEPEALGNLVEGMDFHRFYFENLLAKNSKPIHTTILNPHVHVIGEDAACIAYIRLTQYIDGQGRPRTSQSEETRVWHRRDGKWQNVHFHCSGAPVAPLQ

Compound `NCCc1ccc(-c2ncnc3[nH]cnc23)cc1` has an inhibition [1] of 2%.
Compound `Clc1ccc(C2(c3ccc(-c4ncnc5[nH]cnc45)cc3)CCNCC2)cc1` has an inhibition [2] of 6%, an inhibition [3] of 1.5% and an inhibition [4] of 16%.
Work on `NCC1CCN(c2ncnc3[nH]ccc23)CC1` yielded an inhibition [5] of 0%.
Work on `c1cnc2[nH]ccc2c1` yielded an inhibition [6] of 52%.
`NC1(Cc2ccc(Cl)cc2)CCN(c2ncnc3[nH]ccc23)CC1` was tested, and the inhibition [7] was 0%.
Work on `COC(=O)c1cnc(Nc2cnc(C#N)cn2)cc1NCC1CCNCC1` yielded an inhibition [8] of 6.5%.
With `NCC1CN(c2ncnc3[nH]c4cnccc4c23)CCO1` (configuration not stated) the inhibition [9] was 16%, the inhibition [10] was 19.5% and the inhibition [11] was 4.5%. For the same compound, the inhibition [12] was 23%.

Source: ChEMBL document CHEMBL3132769, “Fragment growing to retain or alter the selectivity of anchored kinase hinge-binding fragments” (Medchemcomm, 2014)
